Legend:
[1] = system: Eca-109 (esophageal cancer cells); experiment: MTT assay, percentage of killing, Eca-109; type: cell-based; settings: for percentage of killing: MTT, 24~48 hours
Description: (§1) 1. Method: 3-[4,5-dimethyl(thiazol-2-yl)-3,5-diphery] tetradium bromide (MTT) assay. 2. Culture medium: RPMI-1640 medium containing 2% calf serum 3. Apparatus: (1) CO2 incubator, Sherton USA; (2) 318MC Enzyme analysis machine, SANCO Equipments Company Ltd. 4. Conditions of the culture: Temp. 37° C.; Concentration of CO2: 4.7%, culture duration: 24˜48 hours.

[2] = system: L1210 (mouse leukemia cells); experiment: MTT assay, percentage of killing, L1210; type: cell-based; settings: 24~48 hours
Description: as §1

[3] = system: B16 (mouse melanocytoma cells); experiment: MTT assay, percentage of killing, B16; type: cell-based; settings: 24~48 hours
Description: as §1

Coxsakie B3 virus = experiment: in vitro; type: cell-based; settings: Coxsakie B3 virus in Veo cells
Description: Treatment of the sample: The sample was first dissolved in DMSO to appropriate concentration. The sample solutions were then diluted the samples in culture medium solution to obtain eight concentrations.
(§2) Methods: The Veo cells were cultured in 96-well plates. The cells were infected with Coxsakie B3 virus for 2 hours after 24 hours of incubation. The solution containing the virus was then discarded. The samples were then added into the wells at the concentrations with the appropriate controls. The cell pathological extent (CPE) was observed 36 hours later. The half inhibitory concentration (IC50) was calculated by using the method of Reed-Muench.
(§3) (1) “-” means that the sample has no anti Coxsakie B3 virus effect at the maximal dose with no toxicity. (2) TC50 indicates the half toxic concentration; IC50 indicates the half inhibitory concentration for the virus; SI indicates the selective index, calculated as the follow: SI=TC50/IC50

[4] = system: L1210 (mouse lymph leukemia cells); experiment: Survival of mice transplanted with L1210; type: in vivo, BDF-1 mice; settings: d 1, d 6, s.c.; for duration of survival (Ave): control 15
Description: Aims: To observe the effect of prolonging the survival of the compound of formula (I) on mice transplanted with L1210, a kind of mouse lymph leukemia cells.
Methods: 18 BDF-1 mice, male. L1210 (mouse lymph leukemia cells) were administered by i.p. injection, at the dose of 1×10^5 per mouse. Mice were divided into three groups randomly, with six animals per group. The test group was administered with the drug on day 1 and day 6 by subcutaneous (s.c.) injection. An equal volume of saline was administered in control animals.
Dosage: Test group 1: 50 mg/kg the lyophilized powder injection of the compound of formula (I) was administered by s.c. injection, • Test group 2: 25 mg/kg the lyophilized powder injection of the compound of formula (I) was administered by s.c. injection, • Test group 3: 12.5 mg/kg the lyophilized powder injection of the compound of formula (I) was administered by s.c. injection.

C. albicans = experiment: Germicidal effect, MTT assay, C. albicans; type: cell-based
Description: Aims: To observe the germicidal effect of the compound of formula (I) on T. rubrum, T. mentagrophytes, C. albicans and B. subtilis. Method: […] Concentration of the samples were: (1) 2 mg/ml; (2) 1 mg/ml; (3) 0.5 mg/ml; (4) 0.25 mg/ml; Volume of the sample: 50 ul/well.

[5] = system: human stomach cancer cells MGC-803; experiment: Nude mouse transplanted with human stomach cancer MGC-803, tumor growth inhibition; type: in vivo, BALB/cA nude mice
Description: Aim: To observe the growth inhibitory effect and the intensity of the effect of the compound of formula (I) in nude mouse transplanted with human stomach cancer cells MGC803.
Material: The lyophilized injection powder of the compound of formula (I), 15 mg/vial, diluted to the needed concentration by 0.9% saline before use.
Dosages: the dosages of the compound of formula (I) are 15, 10 and 5 mg/kg.
Animals: BALB/cA nude mice, female, 40˜45-days old, body weight is 18±2 g. The number of the animals in per group: negative control: 12; group with drug: 6.
Transplanted tumor: Human stomach cancer MGC-803 cells were transplanted into the nude mice as follows. Approximately half a million […] of the MGC-803 cells was injected subcutaneously (s.c.) into the mice. The tumors were used after breeding the mice for three generations.
Methods: Tumors in peak growth were cut into the sizes of around 1.5 mm^3. Under aseptic conditions the tumours were injected subcutaneously to the right axilla of the mouse. The size of the transplanted tumor is then measure and the animals randomly divided into several groups when the size of the tumor reaches 100-200 mm^3. The drug is administered by intravenous (i.v.) injection on the 1st and 6th days. Saline is administered as control. The size of the tumor is examined every two weeks together with the weight of the mouse. The tumor volume(TV) is calculated as:
Where, a and b represent length and width, respectively. The relative tumor volume (RTV) is calculated as: RTV=Vt/V0, where V0 is the volume of the tumor before administering the compound, Vt is the volume of the tumor after administering the compound. The index for evaluating the activity of anticancer is the relative growth rate of tumor (T/C), which is calculated as: […]
wherein, TRTV is the administering group; CRTV is the control group.
The standard for evaluating the treatment effect: T/C (%)>60% means no effect, T/C<=60% and p<0.05 means having a significant effect.

Veo cells = experiment: Half toxic concentration in the antiviral test cells; type: cell-based
Description: as §2, §3

Q: What does the source list for `O=C1CC[C@H](c2ccc(O)c3c2C(=O)C2OC2[C@H]3O)c2cccc(O)c21` (stereo partly shown) [compound of formula (I)]?
A: percentage of killing ([1]; Eca-109, 312.5 ng/ml): 0%; percentage of killing ([1]; Eca-109, 625 ng/ml): 0%; percentage of killing ([1]; Eca-109, 1.25 ug/ml): 0%; percentage of killing ([1]; Eca-109, 2.5 ug/ml): 0%; percentage of killing ([1]; Eca-109, 5 ug/ml): 0.18%; effect on Eca-109 (in words) ([1]; Eca-109, MTT): no effect; percentage of killing ([2]; L1210, 312.5 ng/ml): 0%; percentage of killing ([2]; L1210, 625 ng/ml): 0%; percentage of killing ([2]; L1210, 1.25 ug/ml): 17.02%; percentage of killing ([2]; L1210, 2.5 ug/ml): 94.18%; percentage of killing ([2]; L1210, 5 ug/ml): 97.00%; percentage of killing ([3]; B16, 312.5 ng/ml): 1.06%; percentage of killing ([3]; B16, 625 ng/ml): 6.37%; percentage of killing ([3]; B16, 1.25 ug/ml): 0%; percentage of killing ([3]; B16, 2.5 ug/ml): 51.75%; percentage of killing ([3]; B16, 5 ug/ml): 72.53%; selectivity ratio at 36 h (Coxsakie B3 virus; African green monkey, Veo cells infected with Coxsakie B3 virus, read-out: SI (selective index, TC50/IC50)): 2.88; IC50 (Coxsakie B3 virus; CPE after 36 hours, Reed-Muench, read-out: IC50 (half inhibitory concentration for the virus)): 8.56 µg/mL; prolonging days ([4]; 12.5 mg/kg): 5 days; rate of prolonging (%) ([4]; 12.5 mg/kg): 33%; duration of survival (Ave) ([4]; 12.5 mg/kg): 20; prolonging days ([4]; 25 mg/kg): 7 days; rate of prolonging (%) ([4]; 25 mg/kg): 47%; duration of survival (Ave) ([4]; 25 mg/kg): 22; prolonging days ([4]; 50 mg/kg): 13 days; rate of prolonging (%) ([4]; 50 mg/kg): 87%; duration of survival (Ave) ([4]; 50 mg/kg): 28; Gemicidal effect (killing rate) (C. albicans; 12.5 μg/ml): 50%; Gemicidal effect (killing rate) (C. albicans; 25 μg/ml): 75%; Gemicidal effect (killing rate) (C. albicans; 50 μg/ml): 99%; Gemicidal effect (killing rate) (C. albicans; 100 μg/ml): 99.5%; growth inhibitory effect (in words) ([5]; 15 mg/kg on day 1 and day 6, i.v., T/C<=60% and p<0.05 means significant effect): significant growth inhibitory effect; weight(g) final ([5]; 15 mg/kg, d 1, d 6, i.v., lyophilized powder, body weight of mice, final): 17.2 g; weight(g) Initial ([5]; 15 mg/kg, d 1, d 6, i.v., lyophilized powder, body weight of mice, initial): 18.3 g; T/C (%) ([5]; 15 mg/kg, d 1, d 6, i.v., relative growth rate of tumor, TRTV/CRTV x 100): 0.18%; RTV ([5]; 15 mg/kg, d 1, d 6, i.v., relative tumor volume Vt/V0): 0.02 ± 4.3; complete disappearance of tumor ([5]; 15 mg/kg, d 1, d 6, i.v., three weeks after the treatment, 6 mice): the tumor in one mouse disappeared completely; TV(mm^3) d 0 ([5]; 15 mg/kg, d 1, d 6, i.v., tumor volume before treatment): 102 ± 22 mm^3; TV(mm^3) d 21 ([5]; 15 mg/kg, d 1, d 6, i.v., tumor volume d 21): 2.2 ± 0.04 mm^3; TC50 (half toxic concentration) (Veo cells): 24.7 µg/mL

— US20090203775A1, “Novel compound and a novel microorganism for producing the novel compound” (Haiyi Biotech Pte, Ltd., priority 2005, published 2009)
